# Assay results: patent US6797721B2, “Phorboxazole derivatives for treating cancer” (Parker Hughes Institute, priority 1999, dated 2004)
# Columns and labels:
# [1] = system: ARH77 (multiple myeloma); assay: MTT cytotoxicity assay, ARH77; format: cell-based; settings: Homo sapiens, ARH-77
# [2] = system: BT-20 human breast cancer cells; assay: MTT cytotoxicity assay, BT-20; format: cell-based; settings: BT-20 (breast cancer), 24-36 hours, read-out: IC50 [MTT]
# Method: (§1) The cytotoxicity assay of synthetic Phorboxazole A and various derivative compounds against human tumor cells was performed using the MTT (3-[4,5-dimethylthiazol-2-yl]-2,5-diphenyl tetrazolium bromide) assay (Boehringer Mannheim Corp., Indianapolis, Ind.). Briefly, exponentially growing brain tumor cells were seeded into a 96-well plate at a density of 2.5×10^4 cells/well and incubated for 36 hours at 37° C. prior to drug exposure. On the day of treatment, culture medium was carefully aspirated from the wells and replaced with fresh medium containing the various phorboxazole A derivative compounds as well as the tyrosine kinase inhibitory isoflavone genistein (GEN) at concentrations ranging from 0.1 to 250 μM. Triplicate wells were used for each treatment.
# Human glioblastoma cells U373 (brain cancer), human B-lineage acute lymphoblastic leukemia cells NALM-6, and human breast cancer cells BT-20 were obtained from American Type Culture Collection (Rockville, Md.) and maintained as a continuous cell line in Dulbecco's modified Eagles's medium supplemented with 10% fetal bovine serum and antibiotics.
# The cells were incubated with the various compounds for 24-36 hours at 37° C. in a humidified 5% CO2 atmosphere. To each well, 10 μl of MTT (0.5 mg/ml final concentration) was added and the plates were incubated at 37° C. for 4 hours to allow MTT to form formazan crystals by reacting with metabolically active cells. The fonnazan crystals were solubilized overnight at 37° C. in a solution containing 10% SDS in 0.01 M HCl. The absorbance of each well was measured in a microplate reader (Labsystems) at 540 nm and a reference wavelength of 690 nm. To translate the OD540 values into the number of live cells in each well, the OD540 values were compared to those on standard OD540-versus-cell number curves generated for each cell line. The percent survival was calculated using the formula: [formula]
# The IC50 values were calculated by non-linear regression analysis.
# [3] = system: U266BL (multiple myeloma); assay: MTT cytotoxicity assay, U266BL; format: cell-based; settings: Homo sapiens
# Method: as §1
# The cells were incubated with the various compounds for 24-36 hours at 37° C. in a humidified 5% CO2 atmosphere. To each well, 10 μl of MTT (0.5 mg/ml final concentration) was added and the plates were incubated at 37° C. for 4 hours to allow MTT to form formazan crystals by reacting with metabolically active cells. […] The absorbance of each well was measured in a microplate reader (Labsystems) at 540 nm and a reference wavelength of 690 nm. […] The percent survival was calculated using the formula: [formula]
# The IC50 values were calculated by non-linear regression analysis. […]
# [4] = system: U373 glioblastoma cells; assay: In vitro adhesion assay to ECM proteins, U373; format: cell-based, human; settings: laminin-, fibronectin-, and collagen-coated plates, 0.1 μM to 1 μM for 24 hours
# Method: (§2) Human brain tumor cell lines U-373 MG and breast cancer cell lines BT-20 and MDA-MB-231 were obtained from American Type Culture Collection (ATCC, Rockville, Md.) and maintained in liquid culture using DMEM supplemented with 10% fetal bovine serum and antibiotics. Fibroblast conditioned medium was used as a source of chemoattractant in vitro invasion assays. Conditioned medium was prepared as described in the literature (Albini et.al., 1987, Cancer Res., 47:3239-3245).
# (§3) In vitro adhesion assays were performed to (a) study the baseline adhesive properties of various breast cancer and glioblastoma cell lines and (b) evaluate the effects of phorboxazole A derivatives on the adhesive properties of breast cancer and glioblastoma cells. The plates for the adhesion assays were precoated with the extracellular matrix proteins laminin, fibronectin, or type IV collagen (each at a final concentration of 1 μg/ml in PBS) overnight at 4° C. and dried. On the day of the experiment, the wells were rehydrated and blocked with 10% bovine serum albumin in PBS for 1 hour at room temperature and used for the adhesion assays, as described below.
# (§4) The effects of synthetic phorboxazole A and specific derivatives on adhesion of breast cancer and glioblastoma cells was studied. Exponentially growing cells in DMEM were incubated with phorboxazole compounds or genistein as a control at concentrations ranging from 0.1 μM to 1 μM for 24 hours in a humidified 5% CO2 atmosphere. DMSO (0.1%) was included as a vehicle control. After treatment, cells were detached from the flasks with 0.05% trypsin (Life Technologies) resuspended in DMEM, incubated at 37° C. for 2 hours to allow them to recover from the trypsinization stress and examined for their ability to adhere to plates precoated with ECM proteins.
# (§5) In adhesion assays, cells were centrifuged, washed twice with serum-free DMEM, counted and resuspended in serum-free DMEM to a final concentration of 2.5×10^5 cells/ml. […] The adherent fraction was quantitated using MTT (3-[4,5-dimethylthiazol-2-yl]-2,5-diphenyltetrazolium bromide) assays. […] The absorbance of each well was measured in a microplate reader (Labsystems) at 540 nm and a reference wavelength of 690 nm.
# (§6) To translate the OD540 values into the number of cells in each well, the OD540 values were compared to those on standard OD540-versus-cell number curves generated for each cell line. The adherent fractions of cells treated with phorboxazole A derivatives were compared to those of DMSO-treated control cells and the percent inhibition of adhesion was determined using the formula: [formula]
# (§7) Each treatment condition was evaluated in duplicate in 3 independent experiments. The IC50 values were calculated by non-linear regression analysis. […]
# [5] = system: BT-20 breast cancer cells; assay: In vitro adhesion assay to ECM proteins, BT-20; format: cell-based, human; settings: laminin-, fibronectin-, and collagen-coated plates, 0.1 μM to 1 μM for 24 hours
# Method: as §2, §3, §4, §5, §6, §7
# [6] = system: leukemia NALM-6 cells; assay: Mitochondrial transmembrane potential assay (DiIC1(5) staining); format: cell-based, human; settings: 2.5 nM, 5 nM or 10 nM, 72 hours
# Method: FIG. 2 are graphs showing the effect of synthetic phorboxazole A and phorboxazole A derivatives on the mitochondrial transmembrane potentials of leukemia NALM-6 cells.
# Cells were incubated with 2.5 nM, 5 nM or 10 nM of phorboxazole A, 33-O-methyl-phorboxazole A or 45,46-dehydrobromo-phorboxazole A for 72 hours, stained with DiICl (5) to assess the mitochondrial membrane potential (Δψm) and then analyzed with a cell sorter equipped with a HeNe laser.
compound,measurement,setting,value
"C=C1C[C@@H]2C[C@@H]3C[C@@H](O)C[C@@H](O3)c3coc(n3)/C=C/C[C@H]3O[C@@H](/C(C)=C/c4coc(C[C@]5(O)C[C@H](OC)C[C@H]([C@H](O)/C=C(C)/C=C/[C@@H](C/C=C/Br)OC)O5)n4)[C@H](C)[C@@H](OC(=O)/C=C\C[C@@H](C1)O2)[C@H]3C [Compound 1, Phorboxazole A]",IC50,[1],7.5 nM
same,IC50,[2],3.4 nM
same,IC50,[3],14.9 nM
same,Inhibition of cell adhesion,[4],active
same,Inhibition of cell adhesion,[5],active
same,Depolarized mitochondria (mitochondrial membrane potential),[6],progressive increase in depolarized mitochondria
